Columns and labels:
[1] = tested on: PK1 neuroblastoma cells exposed to TPrP; assay: cells; settings: Neuroblastoma cell, 96 h, read-out: TPrP EC50
in vitro = settings: mouse, tox (toxicity noted in TPrP EC50 column)
[2] = Microsomal stability assay, human hepatic microsomes; assay type: in vitro ADME; settings: 1 mg/ml human hepatic microsomes, 37° C., half-life by LC-MS/MS
Experimental: The metabolic stability of some test compounds was determined in hepatic human and mouse microsomes. The compound was incubated with 1 mg/ml human or mouse hepatic microsomes at 37° C. with continuous shaking. Aliquots were removed at various time points between 5 minutes and 2 hours and acetonitrile was added to quench the reactions and precipitate the proteins. Samples were then centrifuged through 0.45 μm filter plates and half-lives were determined by LC-MS/MS.

Row | Structure (SMILES) | EC50 [1] | EC50 (in vitro) | Stability in human microsomes ≥15 minutes [2]
1 | CCOc1ccc(-c2cc(=O)n3ncc(C(=O)NCCCn4ccnc4C)c3[nH]2)cc1 [SR-32684] | 900 nM | – | –
2 | CCOc1ccc(-c2cc(=O)n3ncc(C(=O)NCCCn4ccnc4C)c3n2C)cc1 [SR-32686] | > 2700 nM | – | –
3 | CCOc1ccc(-c2cc(Cl)n3ncc(C(=O)NCCCn4ccnc4C)c3n2)cc1 [SR-32689] | 20 nM | > 900 nM | –
4 | CCOc1ccc(-c2ccn3ccc(C(=O)NCCCn4ccnc4C)c3n2)cc1 [SR-35784] | – | – | Yes
5 | CCOc1ccc(-c2cc(N3CC[C@@H](NC(C)=O)C3)n3ncc(C(=O)NCCCn4ccnc4C)c3n2)cc1 [SR-32687] | < 5 nM | – | –
6 | CCOc1ccc(-c2cc(=O)c3cccc(C(=O)NCCCn4ccnc4C)c3o2)cc1 [SR-35434] | 18 nM | – | –
7 | Cc1cc(-c2ccc3c(c2)OCO3)nc2c(C(=O)NCCCn3ccnc3C)csc12 [SR-33781] | < 5 nM | – | –
8 | CCOc1ccc(-c2cc(=S)c3cccc(C(=O)NCCCn4ccnc4C)c3o2)cc1 [SR-35435] | 54 nM | – | –
9 | CCOc1ccc(-c2cc(N3CC[C@H](NC(C)=O)C3)n3ncc(C(=O)NCCCn4ccnc4C)c3n2)cc1 [SR-32688] | < 5 nM | – | –
10 | CCOc1ccc(-c2cc(=S)c3scc(C(=O)NCCCn4ccnc4C)c3[nH]2)cc1 [SR-34953] | 6 nM | – | –
11 | O=C(NCCCn1ccnc1)c1cnn2c(C(F)(F)F)cc(-c3ccccc3)nc12 [SR-229] | 2 nM | – | –
12 | Cc1nccn1CCCNC(=O)c1cnn2c(=O)cc(-c3ccc4c(c3)OCO4)[nH]c12 [SR-31105] | 800 nM | – | –
13 | CCSc1ccc(-c2cc(=S)n3ncc(C(=O)NCCCn4ccnc4C)c3[nH]2)cc1 [SR-34831] | 20 nM | – | –
14 | CCOc1ccc(-c2cc(=S)n3ncc(C(=O)NCCCn4ccnc4C)c3[nH]2)cc1 [SR-32685] | 40 nM | – | –
